From ChEMBL document CHEMBL4219222, “A new class of pyrazolo[5,1-c][1,2,4]triazines as γ-aminobutyric type A (GABAA) receptor subtype ligand: synthesis and pharmacological evaluation” (Bioorg Med Chem, 2018)

Experiments:
[1] = molecular target: GABA A receptor alpha-5/beta-3/gamma-2 (Rattus norvegicus, UniProt P18508+P19969+P63079); assay: Displacement of [3H]Ro15-1788 from recombinant rat GABAAalpha5/beta3/gamma2 receptor after 90 mins by liquid scintillation counting method; format: protein-complex assay
[2] = Displacement of [3H]Ro15-1788 from GABAA receptor in bovine cerebral cortex membranes after 90 mins by liquid scintillation counting method; format: cell membranes, Bos taurus, Membrane
[3] = molecular target: GABA-A receptor; alpha-1/beta-2/gamma-2 (Rattus norvegicus, UniProt P18508+P62813+P63138); assay: Displacement of [3H]Ro15-1788 from recombinant rat GABAAalpha1/beta2/gamma2 receptor after 90 mins by liquid scintillation counting method; format: protein-complex assay
[4] = Displacement of [3H]Ro15-1788 from recombinant rat GABAAalpha3/beta2/gamma2 receptor after 90 mins by liquid scintillation counting method
[5] = Displacement of [3H]Ro15-1788 from recombinant rat GABAAalpha2/beta2/gamma2 receptor after 90 mins by liquid scintillation counting method
[6] = species on record: Bos taurus; assay: Displacement of [3H]Ro15-1788 from GABAA receptor in bovine cerebral cortex membranes at 10 uM after 90 mins by liquid scintillation counting method relative to control; format: cell membranes; conditions: Membrane
[7] = molecular target: GABA A receptor alpha-5/beta-3/gamma-2 (Rattus norvegicus) (UniProt P18508+P19969+P63079); assay: Displacement of [3H]Ro15-1788 from recombinant rat GABAAalpha5/beta3/gamma2 receptor at 10 uM after 90 mins by liquid scintillation counting method relative to control; format: protein-complex assay
[8] = species on record: Rattus norvegicus; assay: Selectivity ratio of Ki for recombinant rat GABAAalpha1/beta2/gamma2 receptor to Ki for recombinant rat GABAAalpha2/beta2/gamma2 receptor
[9] = species on record: Rattus norvegicus; assay: Displacement of [3H]Ro15-1788 from recombinant rat GABAAalpha3/beta2/gamma2 receptor at 10 uM after 90 mins by liquid scintillation counting method relative to control
[10] = species on record: Rattus norvegicus; assay: Selectivity ratio of Ki for recombinant rat GABAAalpha5/beta3/gamma2 receptor to Ki for recombinant rat GABAAalpha2/beta2/gamma2 receptor
[11] = species on record: Rattus norvegicus; assay: Displacement of [3H]Ro15-1788 from recombinant rat GABAAalpha2/beta2/gamma2 receptor at 10 uM after 90 mins by liquid scintillation counting method relative to control

GABA A receptor alpha-5/beta-3/gamma-2, sequence (P18508 whole entry): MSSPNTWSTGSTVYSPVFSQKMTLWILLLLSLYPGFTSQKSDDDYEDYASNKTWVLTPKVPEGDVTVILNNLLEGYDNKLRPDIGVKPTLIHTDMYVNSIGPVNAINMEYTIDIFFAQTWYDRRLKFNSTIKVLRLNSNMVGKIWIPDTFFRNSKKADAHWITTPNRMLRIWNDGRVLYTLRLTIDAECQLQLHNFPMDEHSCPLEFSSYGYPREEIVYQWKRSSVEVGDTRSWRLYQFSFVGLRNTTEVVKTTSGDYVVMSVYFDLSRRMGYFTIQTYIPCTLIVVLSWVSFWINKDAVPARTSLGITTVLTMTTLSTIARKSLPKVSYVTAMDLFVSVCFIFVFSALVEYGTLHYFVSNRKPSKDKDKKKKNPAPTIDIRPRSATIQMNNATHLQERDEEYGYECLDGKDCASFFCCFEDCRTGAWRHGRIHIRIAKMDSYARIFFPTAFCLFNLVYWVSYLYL
GABA A receptor alpha-5/beta-3/gamma-2, sequence (P19969 whole entry): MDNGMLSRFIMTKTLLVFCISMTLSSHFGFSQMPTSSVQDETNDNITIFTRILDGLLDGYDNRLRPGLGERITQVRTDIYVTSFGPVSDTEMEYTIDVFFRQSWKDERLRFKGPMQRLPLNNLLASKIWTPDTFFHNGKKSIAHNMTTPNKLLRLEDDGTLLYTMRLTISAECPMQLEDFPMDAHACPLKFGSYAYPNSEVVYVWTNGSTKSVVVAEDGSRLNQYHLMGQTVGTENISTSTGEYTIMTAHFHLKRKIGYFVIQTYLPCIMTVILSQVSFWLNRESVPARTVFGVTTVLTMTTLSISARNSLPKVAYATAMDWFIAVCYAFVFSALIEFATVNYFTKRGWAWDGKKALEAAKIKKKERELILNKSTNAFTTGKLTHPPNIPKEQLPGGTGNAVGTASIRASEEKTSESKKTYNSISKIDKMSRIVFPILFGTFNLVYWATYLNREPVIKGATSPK
GABA A receptor alpha-5/beta-3/gamma-2, sequence (P63079 whole entry): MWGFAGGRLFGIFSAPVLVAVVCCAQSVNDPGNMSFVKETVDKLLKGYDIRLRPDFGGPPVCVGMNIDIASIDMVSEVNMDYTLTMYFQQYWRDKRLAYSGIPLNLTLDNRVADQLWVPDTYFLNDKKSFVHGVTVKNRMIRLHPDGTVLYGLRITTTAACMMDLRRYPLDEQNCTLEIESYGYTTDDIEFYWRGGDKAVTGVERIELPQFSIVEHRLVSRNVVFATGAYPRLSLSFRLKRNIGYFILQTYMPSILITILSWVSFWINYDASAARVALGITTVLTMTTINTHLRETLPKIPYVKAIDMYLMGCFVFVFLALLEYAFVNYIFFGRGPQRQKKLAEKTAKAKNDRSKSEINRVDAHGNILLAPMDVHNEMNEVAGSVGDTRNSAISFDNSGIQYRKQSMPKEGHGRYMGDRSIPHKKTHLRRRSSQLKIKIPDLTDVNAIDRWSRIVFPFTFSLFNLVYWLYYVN
GABA-A receptor; alpha-1/beta-2/gamma-2, sequence (P18508 whole entry): as the sequence (P18508 whole entry) above
GABA-A receptor; alpha-1/beta-2/gamma-2, sequence (P62813 whole entry): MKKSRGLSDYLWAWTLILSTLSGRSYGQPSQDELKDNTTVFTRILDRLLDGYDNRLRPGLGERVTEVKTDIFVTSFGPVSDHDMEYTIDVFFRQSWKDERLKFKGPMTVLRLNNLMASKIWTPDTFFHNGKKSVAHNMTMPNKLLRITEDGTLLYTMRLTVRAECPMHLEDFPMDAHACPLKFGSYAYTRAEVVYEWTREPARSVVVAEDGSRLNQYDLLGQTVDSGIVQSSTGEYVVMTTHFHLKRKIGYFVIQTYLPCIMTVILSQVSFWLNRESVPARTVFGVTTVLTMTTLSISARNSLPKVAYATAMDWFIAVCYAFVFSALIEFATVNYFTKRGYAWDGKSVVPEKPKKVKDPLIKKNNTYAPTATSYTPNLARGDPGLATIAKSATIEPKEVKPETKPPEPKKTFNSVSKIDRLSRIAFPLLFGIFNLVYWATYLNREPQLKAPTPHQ
GABA-A receptor; alpha-1/beta-2/gamma-2, sequence (P63138 whole entry): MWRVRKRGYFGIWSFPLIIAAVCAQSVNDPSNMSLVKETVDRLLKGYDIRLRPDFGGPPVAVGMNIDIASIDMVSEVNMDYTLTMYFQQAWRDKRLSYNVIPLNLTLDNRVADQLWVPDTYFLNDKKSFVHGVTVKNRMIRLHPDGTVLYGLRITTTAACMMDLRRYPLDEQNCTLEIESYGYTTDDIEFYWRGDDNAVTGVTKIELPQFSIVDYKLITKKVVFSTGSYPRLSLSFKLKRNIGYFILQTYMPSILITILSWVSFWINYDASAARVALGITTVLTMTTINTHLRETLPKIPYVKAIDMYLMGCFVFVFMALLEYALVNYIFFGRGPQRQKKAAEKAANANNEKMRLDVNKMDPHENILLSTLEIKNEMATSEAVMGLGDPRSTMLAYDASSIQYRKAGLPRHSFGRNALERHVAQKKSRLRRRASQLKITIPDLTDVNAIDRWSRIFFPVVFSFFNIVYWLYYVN

SMILES | Ki [2] [nM] | Ki [3] [nM] | Ki [5] [nM] | other results
O=c1c(-c2cc[nH]n2)n[nH]c2c(-c3cccnc3)cnn12 | 73.6 | 51 | 5000 | Ki [1]: 1240 nM; Ki [4]: 502 nM
O=c1c(-n2ccnc2)c[nH]c2c(-c3cccs3)cnn12 |  |  |  | inhibition [6]: 14.7%
Cc1ccc(-c2cnn3c(=O)c(-c4cc[nH]n4)n[nH]c23)cc1 |  |  |  | inhibition [6]: 32%
O=c1c(-c2cc[nH]n2)n[nH]c2c(-c3ccc4ccccc4c3)cnn12 | 2300 |  |  | 
O=c1c(-c2cc[nH]n2)c[nH]c2c(-c3ccccn3)cnn12 | 14.2 |  |  | 
O=c1c(-n2cccn2)c[nH]c2c(-c3cccs3)cnn12 |  |  |  | inhibition [6]: 13.9%
O=c1c(-n2ccnc2)c[nH]c2c(-c3ccccc3)cnn12 |  |  |  | inhibition [6]: 2%
O=c1c(-c2cc[nH]n2)c[nH]c2c(-c3cccnc3)cnn12 | 37.3 |  |  | 
O=c1c(-c2cc[nH]n2)c[nH]c2c(-c3ccc4ccccc4c3)cnn12 |  |  |  | inhibition [6]: 20%
O=c1c(-c2cc[nH]n2)c[nH]c2c(-c3cccs3)cnn12 | 533 |  |  | 
O=c1c(-c2cc[nH]n2)n[nH]c2c(-c3ccccn3)cnn12 | 10.5 | 9.1 | 12 | inhibition [7]: 32%
O=c1c(-n2cccn2)c[nH]c2c(-c3ccccc3)cnn12 |  |  |  | inhibition [6]: 59.5%
O=c1c(-c2cc[nH]n2)n[nH]c2c(-c3ccc(F)cc3)cnn12 | 88.3 | 77.3 | 2420 | Ki [1]: 1110 nM; Ki [4]: 894 nM
O=c1c(-c2cc[nH]n2)c[nH]c2c(-c3cccc(Cl)c3)cnn12 | 95.4 |  |  | 
O=c1c(-c2cc[nH]n2)n[nH]c2c(-c3cccs3)cnn12 | 237 | 285 | 41.2 | Ratio Ki [8]: 7; Ki [1]: 662 nM; inhibition [9]: 28%; Ratio Ki [10]: 16
O=c1c(-c2cc[nH]n2)c[nH]c2c(Cc3ccccc3)cnn12 | 854 |  |  | 

Further lines, with some results ahead:

Ki [2] [nM] | Ki [3] [nM] | Ki [5] [nM] | SMILES | other results
77 | 150 |  | O=c1c(-c2cc[nH]n2)n[nH]c2c(-c3cccc4ccccc34)cnn12 | Ki [1]: 159 nM
1610 |  |  | COc1ccc(-c2cnn3c(=O)c(-c4cc[nH]n4)n[nH]c23)cc1 | 
7.2 | 6.5 | > 5000 | O=c1c(-c2cc[nH]n2)n[nH]c2c(-c3cccc(C(F)(F)F)c3)cnn12 | Ki [1]: 144 nM; Ki [4]: 501 nM
599 |  |  | O=c1c(-c2cc[nH]n2)c[nH]c2c(-c3cccc4ccccc34)cnn12 | 
152 | 100 | 632 | O=c1c(-c2cc[nH]n2)n[nH]c2c(-c3cccc(F)c3)cnn12 | Ki [4]: 1080 nM; inhibition [7]: 23%
329 | 420 | 3000 | O=c1c(-c2cc[nH]n2)n[nH]c2c(-c3ccccc3)cnn12 | Ki [1]: 408 nM; Ki [4]: 2090 nM
74 | 65.6 | 990 | O=c1c(-c2cc[nH]n2)n[nH]c2c(-c3cccc(Cl)c3)cnn12 | Ki [4]: 660 nM; inhibition [7]: 40%
2670 |  |  | O=c1c(-c2cc[nH]n2)c[nH]c2c(-n3cccc3)cnn12 | 
38 | 21 |  | O=c1c(-c2cc[nH]n2)n[nH]c2c(-c3cccc(Br)c3)cnn12 | inhibition [11]: 50%; Ki [1]: 1120 nM; Ki [4]: 570 nM
326 |  |  | O=c1c(-c2cc[nH]n2)c[nH]c2c(-c3ccccc3)cnn12 | 
